Data from patent publication US8841321B2, “Quinoline derivatives as antibacterial agents” (Janssen Pharmaceutica NV, priority 2005, dated 2014).
≈ marks a conversion by molar mass, not a printed value.

Legend:
[1] = test system: SPY 8668 (Streptococcus pyogens (ATCC8668)); assay: Microtitre plate assay, IC90 determination; assay type: cell-based; conditions: for IC90: Streptococcus, ATCC8668, Streptococcus pyogens (ATCC8668), read-out: IC90 (μg/ml) SPY 8668; for IC90 (μg/ml) SPY 8668: Streptococcus pyogens (ATCC8668)
[2] = test system: SPN 6305 (Streptococcus pneumoniae (ATCC6305)); assay: Microtitre plate assay, IC90 determination; assay type: cell-based; conditions: for IC90 (μg/ml) SPN 6305: Streptococcus pneumoniae (ATCC6305); for IC90: Streptococcus pneumoniae, ATCC6305, Streptococcus pneumoniae (ATCC6305), read-out: IC90 (μg/ml) SPN 6305
Outline: (§1)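 Growth-inhibition endpoint: resazurin added 3 h after inoculation, plates incubated overnight, fluorescence at 530/590 nm after 24 h at 37 °C. Inocula of roughly 10–60 CFU per well in Mueller-Hinton medium; compounds titrated five-fold. IC90 reported as μg/ml.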

[3] = test system: STA 29213 (Staphylococcus aureus (ATCC29213)); assay: Microtitre plate assay, IC90 determination; assay type: cell-based; conditions: for IC90 (μg/ml) STA 29213: Staphylococcus aureus (ATCC29213)
Outline: as §1

[4] = test system: PAE 27853 (Pseudomonas aeruginosa (ATCC27853)); assay: Microtitre plate assay, IC90 determination; assay type: cell-based; conditions: for IC90 (μg/ml) PAE 27853: Pseudomonas aeruginosa (ATCC27853); for IC90: Pseudomonas aeruginosa, ATCC27853, Pseudomonas aeruginosa (ATCC27853), read-out: IC90 (μg/ml) PAE 27853
[5] = test system: LMO 49594 (Listeria monocytogenes (ATCC49594)); assay: Microtitre plate assay, IC90 determination; assay type: cell-based; conditions: Listeria monocytogenes (ATCC49594)
[6] = test system: STA RMETH (methicilline resistant Staphylococcus aureus (MRSA), a clinical isolate from the University of Antwerp); assay: Microtitre plate assay, IC90 determination; assay type: cell-based; conditions: for IC90: Staphylococcus aureus, MRSA, read-out: IC90 (μg/ml) STA RMETH
[7] = test system: BSU 43639 (Bacillus subtilis (ATCC43639)); assay: Microtitre plate assay, IC90 determination; assay type: cell-based; conditions: Bacillus subtilis (ATCC43639)
[8] = test system: EFA 29212 (Enterococcus faecalis (ATCC29212)); assay: Microtitre plate assay, IC90 determination; assay type: cell-based; conditions: for IC90 (μg/ml) EFA 29212: Enterococcus faecalis (ATCC29212); for IC90: Enterococcus faecalis, ATCC29212, Enterococcus faecalis (ATCC29212), read-out: IC90 (μg/ml) EFA 29212
[9] = test system: STA 25923 (Staphylococcus aureus (ATCC25923)); assay: Microtitre plate assay, IC90 determination; assay type: cell-based; conditions: Staphylococcus aureus (ATCC25923)
[10] = test system: methicillin resistant S. aureus (MRSA); assay: Time kill assay (broth microdilution method); assay type: cell-based, Staphylococcus aureus
Description: (§2) Bactericidal or bacteriostatic activity of the compounds may be determined in a time kill assay using the broth microdilution method*. In a time kill assay on Staphylococcus aureus and methicillin resistant S. aureus (MRSA), the starting inoculum of S. aurues and MRSA is 10^6 CPU/ml in Muller Hinton broth. The antibacterial compounds are used at the concentration of 0.1 to 10 times the MIC (i.e. IC90 as determined in microtitre plate assay). Wells receiving no antibacterial agent constitute the culture growth control. The plates containing the microorganism and the test compounds are incubated at 37° C. After 0, 4, 24, and 48 hrs of incubation samples are removed for determination of viable counts by serial dilution (10^−1 to 10^−6) in sterile PBS and plating (200 μl) on Mueller Hinton agar. The plates are incubated at 37° C. for 24 hours and the number of colonies are determined. Killing curves can be constructed by plotting the log10CFU per ml versus time. A bactericidal effect is commonly defined as 3-log10 decrease in number of CFU per ml as compared to untreated inoculum. The potential carryover effect of the drugs is removed by serial dilutions and counting the colonies at highest dilution used for plating. No carryover effect is observed at the dilution of 10^−2 used for plating. […] Antimicrob. Agents Chemother. 40, 839-845 (1996).

Staphylococcus aureus = assay: Time kill assay (broth microdilution method); assay type: cell-based; conditions: S. aureus; for bactericidal activity in time kill assay: observed at 1 and 10 times MIC90
Description: as §2

| IC90 [1] [µg/mL] | IC90 (μg/ml) SPN 6305 [2] [µg/mL] | IC90 (μg/ml) STA 29213 [3] [µg/mL] | IC90 (μg/ml) PAE 27853 [4] [µg/mL] | melting point [°C] | IC90 (μg/ml) LMO 49594 [5] [µg/mL] | IC90 (μg/ml) STA RMETH [6] [µg/mL] | IC90 (μg/ml) BSU 43639 [7] [µg/mL] | IC90 (μg/ml) EFA 29212 [8] [µg/mL] | IC90 (μg/ml) SPY 8668 [1] [µg/mL] | IC90 (μg/ml) STA 25923 [9] [µg/mL] | IC90 [2] [µg/mL] | IC90 [4] [µg/mL] | IC90 [6] [µg/mL] | IC90 [8] [µg/mL] | IC90 ([3]; Staphylococcus aureus, ATCC29213, Staphylococcus aureus (ATCC29213), read-out: IC90 (μg/ml) STA 29213) [µg/mL] | SMILES | bactericidal activity in time kill assay [10] | MIC (1×MIC; MIC i.e. IC90 as determined in microtitre plate assay) (Staphylococcus aureus) [mg/L] | growth of treated samples in time kill assay (Staphylococcus aureus; at 0.1 times the MIC) | bactericidal activity in time kill assay (Staphylococcus aureus) |
| --- | --- | --- | --- | --- | --- | --- | --- | --- | --- | --- | --- | --- | --- | --- | --- | --- | --- | --- | --- | --- |
|  | 58.4 (≈ 100 µM) | 9.3 (≈ 15.9 µM) | 4.1 (≈ 7.03 µM) | 166 | 11.6 (≈ 19.9 µM) | 58.4 (≈ 100 µM) | 58.4 (≈ 100 µM) | 4.1 (≈ 7.03 µM) | 46.4 (≈ 79.5 µM) | 46.4 (≈ 79.5 µM) |  |  |  |  |  | COc1nc2ccc(Br)cc2cc1C(c1ccccc1)C(O)(CCCCN(C)C)c1ccc2ccccc2c1 (centres unmarked) [Compound 22] |  |  |  |  |
| 1.64 (≈ 3.16 µM) |  |  |  | 121 |  |  |  |  |  |  | 0.41 (≈ 0.789 µM) | 8.23 (≈ 15.8 µM) | 9.2 (≈ 17.7 µM) | 1.64 (≈ 3.16 µM) | 1.64 (≈ 3.16 µM) | CNCCCCC(O)(c1ccccc1)C(c1ccccc1)c1cc2cc(Br)ccc2nc1OC (centres unmarked) [Compound 53] |  |  |  |  |
| 9.1 (≈ 15.9 µM) | 11.4 (≈ 20 µM) | 4.5 (≈ 7.88 µM) |  | 182 |  | 2.3 (≈ 4.03 µM) |  |  |  |  |  | 9.1 (≈ 15.9 µM) |  | 7.2 (≈ 12.6 µM) |  | COc1nc2ccc(-c3ccco3)cc2cc1C(c1ccccc1)C(O)(CCCCN(C)C)c1ccc2ccccc2c1 (centres unmarked) [Compound 38] |  |  |  |  |
|  | 4.3 (≈ 7.01 µM) | 1.9 (≈ 3.1 µM) | 1.9 (≈ 3.1 µM) | 164 |  | 10.9 (≈ 17.8 µM) |  | 1.9 (≈ 3.1 µM) | 1.9 (≈ 3.1 µM) |  |  |  |  |  |  | COc1ccc2cc(C(O)(CCCCN(C)C)C(c3ccccc3)c3cc4c(Br)cccc4nc3OC)ccc2c1 (centres unmarked) [Compound 26] |  |  |  |  |

The next lines start with the molecule.

| SMILES | IC90 [1] [µg/mL] | IC90 (μg/ml) SPN 6305 [2] [µg/mL] | IC90 (μg/ml) STA 29213 [3] [µg/mL] | IC90 (μg/ml) PAE 27853 [4] [µg/mL] | melting point [°C] | IC90 (μg/ml) LMO 49594 [5] [µg/mL] | IC90 (μg/ml) STA RMETH [6] [µg/mL] | IC90 (μg/ml) BSU 43639 [7] [µg/mL] | IC90 (μg/ml) EFA 29212 [8] [µg/mL] | IC90 (μg/ml) SPY 8668 [1] [µg/mL] | IC90 (μg/ml) STA 25923 [9] [µg/mL] | IC90 [2] [µg/mL] | IC90 [4] [µg/mL] | IC90 [6] [µg/mL] | IC90 [8] [µg/mL] | IC90 ([3]; Staphylococcus aureus, ATCC29213, Staphylococcus aureus (ATCC29213), read-out: IC90 (μg/ml) STA 29213) [µg/mL] | bactericidal activity in time kill assay [10] | MIC (1×MIC; MIC i.e. IC90 as determined in microtitre plate assay) (Staphylococcus aureus) [mg/L] | growth of treated samples in time kill assay (Staphylococcus aureus; at 0.1 times the MIC) | bactericidal activity in time kill assay (Staphylococcus aureus) |
| --- | --- | --- | --- | --- | --- | --- | --- | --- | --- | --- | --- | --- | --- | --- | --- | --- | --- | --- | --- | --- |
| COc1ccc2cc(C(O)(CCCCN(C)C)C(c3ccccc3)c3cc4cc(Br)ccc4nc3OC)ccc2c1 (single isomer, unassigned) [Compound 5] | 1.5 (≈ 2.44 µM) | 2.4 (≈ 3.91 µM) | 1.9 (≈ 3.1 µM) | 1.9 (≈ 3.1 µM) | 96 | 1.9 (≈ 3.1 µM) | 1.9 (≈ 3.1 µM) | 1.9 (≈ 3.1 µM) | 1.9 (≈ 3.1 µM) |  |  |  |  |  |  |  |  |  |  |  |
| COc1nc2ccc(Br)cc2cc1C(c1ccccc1)C(O)(CCCCN(C)C)c1cc(F)cc(F)c1 (centres unmarked) [Compound 11] | 9 (≈ 15.8 µM) |  | 1.8 (≈ 3.16 µM) |  | 157 |  |  |  |  |  |  | 9 (≈ 15.8 µM) | 9 (≈ 15.8 µM) | 11.4 (≈ 20 µM) | 9 (≈ 15.8 µM) |  |  |  |  |  |
| COc1nc2ccc(Br)cc2cc1C(c1ccccc1)C(O)(CCCCN(C)C)c1ccc2ccccc2c1 (centres unmarked) [Compound 18] |  | 2.9 (≈ 4.97 µM) | 46.4 (≈ 79.5 µM) | 23.2 (≈ 39.8 µM) |  |  |  |  | 46.4 (≈ 79.5 µM) | 11.6 (≈ 19.9 µM) |  |  |  |  |  |  | marked bactericidal activity | 12 (≈ 20.6 µM) | followed the control in growth | bactericidal activity |
| COc1nc2ccc(Br)cc2cc1C(c1ccccc1)C(O)(CCCCN(C)C)c1ccc2ccccc2c1 (centres unmarked) [Compound 17] |  | 11.6 (≈ 19.9 µM) | 9.3 (≈ 15.9 µM) | 2.3 (≈ 3.94 µM) | 170 | 5.8 (≈ 9.94 µM) | 10.4 (≈ 17.8 µM) | 5.2 (≈ 8.91 µM) | 5.2 (≈ 8.91 µM) | 4.6 (≈ 7.88 µM) | 2.3 (≈ 3.94 µM) |  |  |  |  |  |  |  |  |  |
| O=C(O)c1cn(C2CC2)c2cc(N3CCNCC3)c(F)cc2c1=O [ciprofloxacin, reference compound] |  |  |  |  |  |  |  |  |  |  |  |  |  |  |  |  | no bactericidal effect |  |  | bactericidal activity |
